Several values for one entry are separate records, joined by “and”; a condition that tells them apart may be missing. Identical values can stand only once. Counter-ions that a name gives are not always drawn. Like-named read-outs stand apart in the source and are kept apart here.
Assays:
[1] = test system: Maus; experiment: Hot plate test (licking and jumping), analgesia; assay type: in vivo
Procedure: Heizplattentest: Lecken und Springen, wie von Jacob und Blozovski beschrieben (Arch. Int. Pharmacodyn. 133, 296-209, 1961).
Die in Sekunden ausgedrückten Reaktionszeiten auf einer Heizplatte werden unter Berücksichtigung des Leckens der Vorderpfoten und Springen des Tieres als Kriterien bewertet. Die beiden Reaktionen werden am selben, anfänglich untrainierten Tier mit einer maximalen Ansprechzeit (Obergrenze) von 240 Sekunden beobachtet. Die Temperatur der Platte wird auf 56,6°C gehalten.
Morphin als positive Kontrolle wird subkutan und die übrigen Substanzen (mg/kg) werden intraperitoneal 30 Minuten vor dem Test verabreicht. Positives Ansprechen zeigt sich in einer Zunahme der Reaktionszeit.
Wird der schadensverhütenden Wirkung eine Substanz durch Naloxon entegengewirkt, so kann man schließen, daß die Substanz tatsächlich eine analgetische Wirkung besitzt.

[2] = test system: L-5-Hydroxytryptophan; experiment: Potentiation of L-5-hydroxytryptophan effects (head twitches, tremor); assay type: in vivo, Maus; conditions: mouse
Procedure: L-5 HTP induziert an der Maus ruckartige Bewegungen des Kopfes (Kopfzuckungen). Die zu untersuchenden Substanzen werden den Tieren (10 Mäuse pro Dosis) intraperitoneal 30 Minuten vor dem L-5 HTP (4 mg/kg intraperitoneal) verabreicht. Die ruckartigen Kopfbewegungen und der Tremor werden 1 Minutre lang alle 10 Minuten im Verlauf einer Stunde bewertet. Desimipramin und Indalpin sind die Kontrol-(Vergleichs-)verbindungen. Ein antidepressiver Effekt zeigt sich durch eine Zunahme der ruckartigen Kopfbewegungen und des Tremors.

[3] = test system: Maus; experiment: Behavioural despair test (Porsolt forced swimming); assay type: in vivo; conditions: mouse; for Dauer der Unbeweglichkeit: 30 min before test
Source text: Test auf verzweifeltes Verhalten, wie von Porsolt u.a. (Arch. Int, Pharmacodyn. Ther. 229, 327 - 336, 1977) beschrieben.
Die Verbindungen werden intraperetoneal 30 Minuten vor dem Test verabreicht, und die Tiere werden vor dem erzwungenen Schwimmtest isoliert gehalten. Man bewertet die Dauer der Unbeweglichkeitsperioden in Sekunden ausgedrückt, die von der 2. bis zur 6. Minute nach dem Einsetzen des Tieres in Wasser gezählt werden.

[4] = test system: Motoraktivität; experiment: Actimetry (motor activity, photocell actimeter); assay type: in vivo, Maus
Source text: Die Motoraktivität wird mittels Photozellenaktimetern bestimmt (Boissier und Simon, Arch. Int. Pharmacodyn. 1965, 158, 212-221).
Die Mäuse (10 oder ein Vielfaches von 10 pro Gruppe) werden unmittelbar nach i.p. Verabreichung der zu untersuchenden Verbindungen in das Aktimeter eingesetzt. Die Motoraktivität wird danach bis zur 60. Minute gemessen. De Zähler werden nach 30 Minuten abgelesen und dann auf 0 zurückgestellt und im Verlauf von 30 Minuten alle 10 Minuten abgelesen.
Die Beweglichkeit der mit den verschiedenen Verbindungen behandelten Tiere wird mit derjenigen einer destilliertes Wasser erhaltenden Kontrollgruppe verglichen.
Die eine psychostimulierende Aktivität besitzenden Produkte verursachen eine Zunahme der Beweglichkeit.

[5] = test system: Maus; experiment: Tail suspension test; assay type: in vivo; conditions: for minimal effective dose: ip; for % Antagonismus / Dauer der Unbeweglichkeit: mouse
Source text: Schwanzaufhängungstest an der Maus wie von Stéru u.a. beschrieben (Psychopharmacology 85, 367-370, 1985).
Die Substanzen werden intraperitoneal 30 Minuten vor dem Test verabreicht und die Tiese isoliert (10 Mäuse pro Dosis).
Man bewertet die Dauer der Unbeweglichkeit, ausgedrückt in Sekunden über die 6 Minuten des Tests. Man untersucht auf eine Verkürzung dieser Unbeweglichkeitszeit.

[6] = test system: Toxizität des Yohimbins; experiment: Potentiation of yohimbine toxicity; assay type: in vivo, Maus
Procedure: Wirkung auf die Toxizität des Yohimbins
Zur Zeit 0 erhalten die Mäuse entweder destilliertes Wasser oder verschiedene zu untersuchende Verbindungen i.p. 30 Minuten danach verabreicht man ihnen subkutan eine infratoxische Dosis von 25 mg/kg Yohimbinchlorhydrat.
Die Mortalität wird jede Stunde über einen Zeitraum von 4 Stunden verfolgt und dann nach 24 Stunden notiert.
Die eine antidepressive Aktivität besitzenden Produkte verursachen eine Potenzierung der Toxizität des Yohimbins.

[7] = test system: durch Reserpin induzierten Hypothermie; experiment: Antireserpine activity (reserpine-induced hypothermia); assay type: in vivo, Maus; conditions: ip
Procedure: Zur Zeit 0 erhalten die Mäuse intraperitoneal Reserpin (2,5 mg/kg).
4 Stunden danach, wenn die Hypothermie genügend stark erscheint (30 bis 33°C), verabreicht man die verschiedenen zu untersuchenden Verbindungen i.p. oder p.o. Alle 30 Minuten über einen Zeitraum von 2 Stunden mißt man die Rektaltemperatur mit einer auf konstante Tiefe eingeführten, ein Thermoelement tragenden Sonde. Die Rektaltemperatur der mit verschiedenen erfindungsgemäßen Verbindungen behandelten Tiere wird mit der Temperatur einer Kontrollgruppe verglichen, die destilliertes Wasser auf die gleiche Weise wie die untersuchten Verbindungen erhält.
Die Akinesie (fehlende Bewegungen) und Ptose (Öffnungsgrad des Augenlids von 0 bis 4 nach Rubin u.a 1957) werden ebenfalls alle 30 Minuten über einen Zeitraum von 2 Stunden bewertet.
Die eine antidepressive Aktivität besitzenden Produkte wirken der durch Reserpin induzierten Hypothermie entgegen. Für jede Dosis der verabreichten Verbindung berechnet man die prozentuale Hemmung der Hypothermie.

[8] = test system: durch Oxotremorin induzierten Hypothermie; experiment: Antioxotremorine activity (oxotremorine-induced hypothermia); assay type: in vivo, Maus; conditions: Mus musculus, ip, read-out: Erste wirksame Dosis Oxotremorin
Procedure: Nach Ausgleich der Rektaltemperaturen erhalten Mäuse (6 pro Gruppe) entweder destillietes Wasser oder die verschiedenen zu untersuchenden Verbindungen i.p.
30 Minuten danach verabreicht man intraperitoneal Oxotremorin in einer Dosis von 0,5 mg/kg.
Die Mäuse werden dan beobachtet: Tremor wird je nach der Intensität von 0 bis 3 bewertet, und die Akinesie wird alle 10 Minuten über einen Zeitraum von 30 Minuten auf Vorliegen oder Fehlen bestimmt.
Außerdem beobachtet man 2 Stunden lang das Erscheinen peripherer Symptome (Tränen, Darmentleerung). Die Rektaltemperatur wird alle 30 Minuten über eine Zeitraum von 2 Stunden nach der Verabreichung des Oxotremorins gemessen.
Die eine antidepressive Aktivität besitzenden Produkte wirken der durch Oxotremorin induzierten Hypothermie entgegen.
Für jede Dosis der Verbindung berechnet man die prozentuale Hemmung der Hypothermie.

[9] = test system: Apomorphin 16 mg/kg; experiment: Antiapomorphine activity (apomorphine 16 mg/kg s.c., hypothermia); assay type: in vivo, Maus; conditions: ip
Procedure: Zur Zeit 0 nach Ausgleich der Reaktaltemperaturen werden die Mäuse (6 pro Gruppe) in deren Beobachtung gestattende Einzelkäfige (11 x 3,5 x 4 cm) eingeetzt. 30 Minuten nach i.p. bzw. p.o. Verabreichung der Testsubstanz erhalten sie Apomorphin subkutan in einer Dosis von 16 mg/kg. Die Rektaltemperatur wird 30 Minuten nach dem Apomorphin gemessen. Die Kontrolltiere erhalten destilliertes Wasser statt der zu untersuchenden Verbindungen. Die bei diesen Kontrolltieren, die 16 mg/kg Apomorphin erhalten haben, beobachtete Hypothermie liegt im Durchschnitt bei 33°C. Für jede Verbindungsdosis berechnet man die prozentuale Hemmung der Hypothermie.

[10] = test system: Apomorphin 1 mg.kg^-1 s.c.; experiment: Apomorphine 1 mg/kg s.c. antagonism (no method given); assay type: in vivo; conditions: ip, Tabelle Ib; read-out: Erste wirksame Dosis Apomorphin 1 mg.kg^-1 s.c.
[11] = mouse, Tabelle 5a, 16 mg/kg, without Naloxon
[12] = mouse, reaction time, 8 mg/kg i.p., plate 56,6°C
[13] = mouse, reaction time, 16 mg/kg i.p., plate 56,6°C, 16 mg/kg
[14] = mouse, reaction time, 32 mg/kg i.p., plate 56,6°C
[15] = 8 mg/kg i.p., 30 min before L-5 HTP 4 mg/kg i.p.
[16] = 4 mg/kg i.p., 30 min before L-5 HTP 4 mg/kg i.p.

c1ccc([C@@H]2CCNC[C@H]2c2ccccc2)cc1 (relative stereo) [DPPT, trans-3,4-Diphenylpiperidin]
minimal effective dose ([1]; Mus musculus, ip, 0.5 h, read-out: Effekt statistisch gesichert bei): 16 mg/kg | Pfotenlecken [1, 11]: 10,0 ± 1,5 p < 00,1 Sekunden and 7,9 ± 0,6 p < 0,02 Sekunden | Sprünge [1, 11]: 141 ± 12 p < 0,01 Sekunden and 125 ± 14 p < 0,01 Sekunden | schadenverhütender Effekt, Wechselwirkung mit Naloxon ([1]; mouse, hot plate): unterliegt Antagonismus durch Naloxon | Pfotenlecken [1, 12]: 7,0 ± 0,9 Sekunden | Sprünge [1, 12]: 103 ± 10 Sekunden | Pfotenlecken [1, 13]: 8,7 ± 1,2 p < 0,02 Sekunden and 9,9 ± 2,0 Sekunden | Sprünge [1, 13]: 154 ± 11 p < 0,001 Sekunden and 135 ± 14 p < 0,05 Sekunden | Pfotenlecken [1, 14]: 13,0 ± 1,7 p < 0,01 Sekunden | Sprünge [1, 14]: 193 ± 17 p < 0,001 Sekunden | minimal effective dose ([2]; ip, read-out: Zunahme der durch L-5 HTP induzierten ruckartigen Kopfbewegungen, Effekt gesichert bei): 8 mg/kg | Tremor [2, 15]: 1,3 ± 0,4 | ruckartige Kopfbewegungen [2, 15]: 4,7 ± 0,6 p < 0,01 | Tremor ([2]; L-5 HTP potentiation): verstärkt | minimal effective dose at 16 mg/kg ([3]; ip, Porsolt test, effect stronger at 16 mg/kg, read-out: bedeutsame Abnahme in der Dauer der Unbeweglichkeit, Dosis): ≥ 8 mg/kg | % Antagonismus ([3]; 8 mg/kg i.p.): 28% | Dauer der Unbeweglichkeit ([3]; 8 mg/kg i.p.): 141 ± 16 p < 0,02 Sekunden | % Antagonismus ([3]; 16 mg/kg i.p.): 47% | Dauer der Unbeweglichkeit ([3]; 16 mg/kg i.p.): 94 ± 17 p < 0,001 Sekunden | stimulierender Effekt an der Maus ([4]; mouse, 16 mg/kg): keinen stimulierenden Effekt | minimal effective dose ([5]; Mus musculus, read-out: bedeutsame Verkürzung der Dauer der Unbeweglichkeit, Dosis): ≥ 2 mg/kg | % Antagonismus ([5]; 1 mg/kg i.p.): 25% | Dauer der Unbeweglichkeit ([5]; 1 mg/kg i.p.): 58 ± 13 Sekunden | % Antagonismus ([5]; 2 mg/kg i.p.): 51% | Dauer der Unbeweglichkeit ([5]; 2 mg/kg i.p.): 38 ± 7 p < 0,01 Sekunden | % Antagonismus ([5]; 4 mg/kg i.p.): 79% | Dauer der Unbeweglichkeit ([5]; 4 mg/kg i.p.): 16 ± 2 p < 0,001 Sekunden | % Antagonismus ([5]; 16 mg/kg i.p.): 84% | Dauer der Unbeweglichkeit ([5]; 16 mg/kg i.p.): 12 ± 3 p < 0,001 Sekunden

Clc1ccc([C@@H]2CCNC[C@H]2c2ccccc2)cc1Cl [15 (HCl-Salz)]
Erste wirksame Dosis Yohimbin ([6]; mouse, i.p., only or lowest value of the cell): 1 mg/kg | Aktimetrie ([4]; mouse, direction of change of motor activity): ↗ | minimal effective dose ([7]; Mus musculus, read-out: Erste wirksame Dosis Reserpin, mouse, i.p., only or lowest value of the cell): 1 mg/kg | minimal effective dose [8]: 0.25 mg/kg | minimal effective dose ([9]; Mus musculus, read-out: Erste wirksame Dosis Apomorphin 16 mg/kg, mouse, i.p., only or lowest value of the cell): 1 mg/kg

CNCCCN1c2ccccc2CCc2ccccc21 [DESIPRAMIN, reference compound]
Pfotenlecken [1, 12]: 8,2 ± 0,5 p < 0,001 Sekunden | Sprünge [1, 12]: 85 ± 7 Sekunden | Tremor [2, 16]: 0,5 ± 0,2 | ruckartige Kopfbewegungen [2, 16]: 3,8 ± 0,4 p < 0,01 | minimal effective dose ([6]; ip, Tabelle Ib, read-out: Erste wirksame Dosis Yohimbin): 0.5 mg/kg | minimal effective dose [10]: > 16 mg/kg | % Antagonismus ([3]; 8 mg/kg i.p.): 48% | Dauer der Unbeweglichkeit ([3]; 8 mg/kg i.p.): 105 ± 16 p < 0,001 Sekunden | Motilität ([4]; i.p., direction of change, Tabelle Ib): ↘ | minimal effective dose ([4]; ip, Tabelle Ib, read-out: Erste wirksame Dosis Motilität): 4 mg/kg | minimal effective dose ([5]; Tabelle Ib, read-out: Erste wirksame Dosis T.S.T. Maus): 1 to 4 mg/kg | minimal effective dose ([7]; Tabelle Ib, read-out: Erste wirksame Dosis Reserpin): 0.25 mg/kg | minimal effective dose ([9]; Tabelle Ib, read-out: Erste wirksame Dosis Apomorphin 16 mg.kg^-1 s.c.): 2 mg/kg

From patent EP0273199A2, “Uses of 3,4-diphenyl piperidine derivatives or medicines, 3,4-diphenyl piperidine derivatives, and process for their preparation” (LABORATOIRES HOECHST S.A., priority 1986, dated 1988)
